Results from patent publication US20190316085A1, “Methods Of T-Lymphocyte Expansion” (Cambridge Enterprise Limited, priority 2015, published 2019).

Legend:
EG7-OVA tumours = experiment: Adoptive cellular immunotherapy experiments; type: in vivo, mouse; conditions: i.v.
Protocol: Mice were lymphodepleted with sub-lethal irradiation before receivening intravenous injection of OT-I CD8^+ T-lymphocytes. Error bars denote s.e.m. *p<0.05, ns=non-significant.
Error bars denote s.e.m. *p<0.05, ns=non-significant.
For adoptive cell therapy experiments, OT-I CD8^+ T-lymphocytes were activated with 1000 nM SIINFEKL peptide in the presence of IL-2 and vehicle or 300 μM S-2HG-octyl ester. After 48 h CD8^+ T-cells were purified by negative selection and cultured for a further 7 days in the presence of IL-2 and vehicle or 300 μM S-2HG-octyl ester. OT-I cells were transferred intravenously into tumour-bearing C57BL/6J lymphodepleted or lymphoreplete mice with 9-12 day established EG7-OVA tumours.

OT-I CD8^+ T-lymphocytes [1] = experiment: Recall experiments with co-transferred cells; type: in vivo, mouse; conditions: cells pre-treated with 300 μM S-2HG-octyl ester; spleen, lymphnodes, liver, day 37 post transfer
Protocol: CD45.1.1 or CD45.1.2 OT-I CD8^+ T-lymphocytes were activated with 1000 nM SIINFEKL peptide and cultured with or without 300 μM S-2HG-octyl ester for 9 days. Cells from each group were mixed 1:1 prior to transfer into CD45.2.2 mice. 30 days later, these recipient mice were vaccinated with SIINFEKL-loaded dendritic cells to induce recall and the presence of CD451.1 and CD45.1.2 CD8^+ T-lymphocytes was enumerated in spleen, lymphnodes and liver by flow cytometry 7 days later.

CD8^+ T-lymphocytes [2] = experiment: Flow cytometric characterisation of phenotypic markers; type: cell-based, mouse; conditions: 7 days
From the text: Gated on live CD8^+ cells. Each dot represents an individual mouse.
Associated statistics are shown and each pair of dots represents an individual mouse. Gated on live, CD8^+GFP^+ cells.
Cells were stained and acquired on a Fortessa (BD Biosciences). The following fluorophores and fluorophore-conjugated antibodies were used: anti-CD62L (Biolegend, MEL-14), anti-CD44 (Biolegend, IM7), anti-CD8a (Biolegend, 53-6.7), anti-CD45.1 (Biolegend, A20), anti-CD45.2 (Biolegend, 104), anti-CD127 (Biolegend, A7R34), anti-KLRG1 (Biolegend, 2F1/KLRG1), anti-CD19 (Biolegend, 6D5), anti-Bcl-2 (Biolegend, BCL/10C4), Eomes (eBioscience, Danlimag), PD-1 (Biolegend, 29F.1A12), […], H-2Kb/SIINFEKL Pentamer-PE (Proimmune, F093-2A), CFSE (Life Technologies), LIVE/DEAD Violet (Life Technologies), PI-AnnexinV (Biolegend, 640928), anti-Bcl-xl-PE (Cell Signalling Technologies, 54H6). For staining of nuclear-located marker Eomes, the Transcription Factor Staining Buffer Set (eBioscience) was used, according to the manufacturer's instructions. For staining of intracellular cytokines, OT-I cells were re-stimulated with SIINFEKL peptide for 4 h with GolgiStop solution (BD). For ^1H-NMR experiments, CD8^+ T-lymphocytes were sorted from total splenocytes by immunostaining with anti-mouse CD8-AF647 (Biolegend) on a MoFlo (Beckman Coulter). Cells were then activated and cultured as described above. For staining of human T cells, CD8^+ T cells were incubated at 37 C for 30 minutes in the presence of anti-CCR7 antibody (eBioscience 12-1979-41), followed by staining with anti-CD45RO antibody (Biolegend, UCHL1).

OT-I CD8^+ T-lymphocytes [3] = experiment: In vivo persistence experiments; design: species or system mouse
Protocol: Flow cytomotery plots are gated on live cells.
Total splenocytes from OT-I CD45.1^+ mice were activated with 1000 nM SIINFEKL peptide in the presence of IL-2 and vehicle or 300 μM S-2HG-octyl ester. After 48 h CD8^+ T-cells were purified by negative selection and cultured for 7 days in the presence of IL-2 and vehicle or 300 μM S-2HG-octyl ester. 1 million CD45.1^+CD8^+ cells were then injected intravenously into C57BL/6J wild type CD45.2.2 host mice. 30 days later, host mice were sacrificed to assess the persistence of transferred cells in the spleen. Absolute numbers of cells were determined with the use of counting beads (CountBright, Life Technologies).

CD8^+ T-lymphocytes [4] = experiment: qRT-PCR of differentiation, memory and pluripotency associated genes; type: cell-based, mouse; conditions: 0.5 mM, 1 day or 7 days, with IL2
Protocol: FIGS. 8E, 8F and 8G show expression of II2(8E), Ifng (8F), and Eomes (8G) mRNA in CD8^+ T-lymphocytes activated for 48 h with αCD3+αCD28 antibodies and then expanded for a further 2 days in the presence of IL-2. Cells were then treated for either 24 h or 7 days with or without 0.5 mM S-2HG-octyl ester or R-2HG-octyl ester. n≥4 mice per group.
Activated CD8^+ T-lymphocytes were treated with 0.5 mM of either S-2HG-octyl ester or R-2HG-octyl ester for 1 day or 7 days in the presence of IL2. The induction seen with R-2HG-octyl ester is weaker than with S-2HG-octyl ester. Each dot represents an individual donor mouse, n=4 mice. error bars denote the s.d.
RNA was isolated using the RNeasy kit (Qiagen). 1 μg of RNA was used for cDNA synthesis with the First-Strand Synthesis kit (Invitrogen). All samples were run in technical triplicates using a StepOnePlus system (Applied Biosystems) with SYBR green.

OT-I CD8^+ T-lymphocytes [5] = experiment: Homeostatic proliferation after co-transfer into sub-lethally irradiated hosts; type: in vivo, mouse
Protocol: CD45.1.1 or CD45.1.2 OT-I CD8^+ T-lymphocytes were activated with 1000 nM SIINFEKL peptide and cultured with or without 300 μM S-2HG-octyl ester for 9 days. Cells from each group were mixed 1:1 and labelled with CFSE prior to transfer into sub-lethally irradiated CD45.2.2 mice. 7 days later, mice were sacrificed and the presence of CD451.1 and CD45.1.2 CD8^+ T-lymphocytes was enumerated in spleen by flow cytometry. Representative flow cytometry plots are shown for each pool before and after adoptive transfer. Flow cytometry plots show viable CD8^+ cells.
Total splenocytes from OT-I CD45.1/CD45.1 and OT-I CD45.1/CD45.2 mice were activated with 1000 nM SIINFEKL peptide in the presence of IL-2 and vehicle or 300 μM S-2HG-octyl ester. After 48 h CD8^+ T-cells were purified by negative selection and cultured for a further 7 days in the presence of IL-2 and vehicle or 300 μM S-2HG-octyl ester. Vehicle and S-2HG-treated cells were then mixed 1:1 and labelled with CFSE, followed by intravenous injection into sub-lethally irradiated CD45.2/CD45.2 hosts. 7 days later, spleens were harvested and analysed by flow cytometry. Absolute numbers of cells were determined with the use of counting beads (CountBright, Life Technologies)

CD8^+ T-lymphocytes [6] = experiment: Flow cytometry of CD44 and CD62L surface expression; type: cell-based, mouse; conditions: 0.5 mM, with IL-2; antigen specific (OT-I) and polyclonal CD8+ T-lymphocytes
From the text: Data are representative of n=4 individual mice.
Data are representative of 3 mice per genotype.
Data are representative of 2 mice per genotype.
Data are representative of n=3 individual mice.
Cells were stained and acquired on a Fortessa (BD Biosciences). […] For staining of nuclear-located marker Eomes, the Transcription Factor Staining Buffer Set (eBioscience) was used, according to the manufacturer's instructions. For staining of intracellular cytokines, OT-I cells were re-stimulated with […] peptide for 4 h with GolgiStop solution (BD). For ^1H-NMR experiments, CD8^+ T-lymphocytes were sorted from total splenocytes by immunostaining with anti-mouse CD8-AF647 (Biolegend) on a MoFlo (Beckman Coulter). Cells were then activated and cultured as described above.

[7] = tested on: OT-I CD8^+CD45.1^+ T-lymphocytes; experiment: In vivo memory recall experiment (adoptive transfer, vaccination); design: species or system mouse; conditions: 0.5 mM, 7 days with IL-2 (FIGS. 13, 16, 17)
Protocol: FIGS. 13B and 13C show representative flow cytometry plots of (B) CD8^+CD45.1^+ (C) or Kb/SIINFEKL Pentamer^+CD45.1^+ T-lymphocytes, in the spleens of vaccinated litter mate CD45.2 mice, 37 days after adoptive transfer of SIINFEKL-activated OT-I CD8^+CD45.1^+ T-lymphocytes, expanded with 0.5 mM S-2HG-octyl ester, 0.5 mM R-2HG-octyl ester or vehicle in the presence of IL-2 for 7 days. FIGS. 13D-F show (13D) the number of recovered CD45.1^+CD8^+ T-lymphocytes per spleen and (13E) % CD45.1^+ cells of the total CD8^+ population in each spleen or (13F) number of recovered Kb/SIINFEKL Pentamer^+CD45.1^+ T-lymphocytes per spleen 7 days after vaccination (37 days after the CD8+ T-cells were transferred into the mice). n=6 mice per group and error bars denote the s.e.m.
Total splenocytes from OT-1 CD45.1^+ mice were activated with 1000 nM SIINFEKL peptide in the presence of IL-2 and vehicle, 0.5 mM S-2HG-octyl ester or 0.5 mM R-2HG-octyl ester for 7 days. 1 million CD45^+CD8^+ cells were then injected intravenously into C57/B6 wild type CD45.2^+ host mice. 30 days later, host mice were vaccinated i.p. with SIINFEKL-loaded dendritic cells. 7 days later, spleens were harvested from host mice and the presence of CD45.1^+CD8^+ and Kb/SIINFEKL Pentamer+cells was determined by flow cytometry. Absolute numbers of cells were determined with the use of counting beads (CountBright, Life Technologies). Dendritic cells were prepared from bone marrow extracted from wild type C57/B6 mice. Bone marrow derived cells were cultured in non-TC treated petri dishes in RPMI-1640 medium containing 2 mM glutamine, 10% FBS, 25 mM HEPES, pH 7.2, 1% penicillin-streptomycin, 55 μM […] supplemented 20 ng/ml mGM-CSF (R&D Systems). After 8 days of culture, dendritic cells were activated with 1 μg/ml LPS (Sigma) for 24 h. The maturation of dendritic cells was confirmed by flow cytometry using the following markers: MHC class II-APC, CD11b-AF488, CD11c-AF488 and CD86-PE/Cy7 (Biolegend). Mature dendritic cells were then loaded with 2 μM SIINFEKL peptide at 37° C. for 1 hour. After peptide loading, dendritic cells were detached with 3 mM EDTA in PBS for 5-10 min at 37° C. and washed with PBS. For vaccination, 1 million peptide-loaded dendritic cells were injected i.p. per mouse in 100 μl PBS.

[8] = 500 μM S-2HG-octyl ester, HIF-1α-independent

## O=C(O)CC[C@H](O)C(=O)O [S-2HG, S-2-hydroxyglutarate]
EG7-OVA tumours; 0.7×10^6 OT-I cells cultured with S-2HG-octyl ester, 12 day tumours
  control of tumour growth in lymphodepleted tumour-bearing mice: more proficient at controlling tumour growth
EG7-OVA tumours; 1.0×10^6 OT-I cells cultured with S-2HG-octyl ester, 9 day tumours
  control of tumour growth in lymphoreplete tumour-bearing mice: more proficient at controlling tumour growth
OT-I CD8^+ T-lymphocytes [1]
  recall response to vaccination with SIINFEKL-loaded dendritic cells: superior recall response
CD8^+ T-lymphocytes [2]; 300 μM S-2HG-octyl ester, 21% oxygen, empty or L2hgdh-FLAG vector
  proportion of KLRG1^High cells: decreased
CD8^+ T-lymphocytes [2]; 500 μM S-2HG-octyl ester
  PD-1 expression: less
CD8^+ T-lymphocytes [2]; [8]
  41BB expression: more
  CD44 expression: more
  CD127 expression: more
  Eomes expression (flow cytometry): more
OT-I CD8^+ T-lymphocytes [3]; cells pre-treated with 300 μM S-2HG-octyl ester, spleen, 30 days after transfer
  persistence of adoptively transferred cells: dramatically enhanced persistence
OT-I CD8^+ T-lymphocytes [3]; day 30 after transfer
  Bcl-2 level of recovered cells relative to naïve cells: elevated
  CD44 level of recovered cells relative to naïve cells: elevated
  CD127 level of recovered cells relative to naïve cells: elevated
CD8^+ T-lymphocytes [4]
  expression of pluripotency associated genes (Oct3/4, Sox2, Nanog, Klf4): induces the expression
OT-I CD8^+ T-lymphocytes [5]; cells pre-treated with 300 μM S-2HG-octyl ester 9 days, 7 days after transfer, spleen
  homeostatic proliferation of transferred cells: greater homeostatic proliferation
OT-I CD8^+ T-lymphocytes [5]; cells pre-treated with 300 μM S-2HG-octyl ester, CFSE, day 7
  transferred cells dividing >5 times in vivo: more cells dividing >5 times

## COC(=O)CCC(=O)OC [dimethylsuccinate]
CD8^+ T-lymphocytes [6]
  formation of a CD62L^high CD44^high population: induce the formation
[7]
  formation of memory cells after in vitro treatment of CD8+ T-cells: induces the formation

## CCCCCCCCOC(=O)C(=O)CCC(=O)O [α-ketoglutarate octyl ester, reference compound]
CD8^+ T-lymphocytes [6]
  formation of a CD62L^high CD44^high population: not observed
[7]
  formation of memory cells after in vitro treatment of CD8+ T-cells: does not induce the formation
[7]; listed as alpha ketoglutarate
  formation of memory cells after in vitro treatment of CD8+ T-cells: does not provide good activity
